Reference: patent US10315992B2, “Tetracyline compounds” (Tetraphase Pharmaceuticals, Inc., priority 2012, dated 2019)
≈ marks a conversion by molar mass, not a printed value. Like-named read-outs stand apart in the source and are kept apart here.

How the values were obtained:
[1] = test system: Escherichia coli EC878 (MG1655 tolC::kan); experiment: microbe, parasite or virus in culture; format: cell-based
[2] = test system: Pseudomonas aeruginosa PA1145 (strain used in murine pneumonia model); experiment: MIC assay, PA1145; format: cell-based; conditions: control compounds
PA 884 35151 = experiment: MIC assay, PA884; conditions: Pseudomonas aeruginosa, read-out: MIC PA 884 351 51
Description: (§3) MICs were determined according to the Clinical and Laboratory Standards Institute (CLSI) guidances (e.g., CLSI. Performance standards for antimicrobial susceptibility testing; nineteenth information supplement. CLSI document M100-S19, CLSI, 940 West Valley Road, Suite 1400, Wayne, Pa. 19087-1898, USA, 2009). Briefly, frozen bacterial strains were thawed and subcultured onto Mueller Hinton Broth (MHB) or other appropriate media (Streptococcus requires blood and Haemophilus requires hemin and NAD). Following incubation overnight, the strains were subcultured onto Mueller Hinton Agar and again incubated overnight. […] Isolated colonies were selected to prepare a starting inoculum equivalent to a 0.5 McFarland standard. […] Test compounds were prepared by dilution in sterile water to a final concentration of 5.128 mg/mL. Antibiotics (stored frozen, thawed and used within 3 hours of thawing) and compounds were further diluted to the desired working concentrations.
(§4) The assays were run as follows. Fifty μL of MHB was added to wells 2-12 of a 96-well plate. One hundred μL of appropriately diluted antibiotics was added to well 1. Fifty μL of antibiotics was removed from well 1 and added to well 2 and the contents of well 2 mixed by pipetting up and down five times. Fifty μL of the mixture in well 2 was removed and added to well 3 and mixed as above. Serial dilutions were continued in the same manner through well 12. Fifty μL was removed from well 12 so that all contained 50 μL. Fifty μL of the working inoculum was then added to all test wells. A growth control well was prepared by adding 50 μL of working inoculum and 50 μL of MHB to an empty well. The plates were then incubated at 37° C. overnight, removed from the incubator and each well was read on a plate reading mirror. The lowest concentration (MIC) of test compound that inhibited the growth of the bacteria was recorded.

[3] = test system: Streptococcus pyogenes SP312 (2009 clinical isolate, tet(M)); experiment: MIC assay, SP312; format: cell-based; conditions: S. pyogenes tet(M)
[4] = test system: Stenotrophomonas maltophilia SM256 (cystic fibrosis isolate, MDR); experiment: MIC assay, SM256; format: cell-based; conditions: control compounds
[5] = test system: Pseudomonas aeruginosa PA669 (2009 tracheal aspirate isolate); experiment: MIC assay, PA669; format: cell-based; conditions: control compounds
[6] = test system: Streptococcus pneumoniae SP160 (tet(M)); experiment: MIC assay, SP160; format: cell-based
[7] = test system: Proteus mirabilis PM112 (ATCC 35659); experiment: MIC assay, PM112; format: cell-based; conditions: ATCC35659, P. mirabilis ATCC 35659, Table 5, read-out: MIC PM 112 35659
[8] = test system: Enterococcus faecium EF404 (blood isolate, tet(M)); experiment: MIC assay, EF404; format: cell-based
EC 882 imp = experiment: MIC assay, EC882; format: cell-based
Description: (§1) Minimum Inhibitory Concentration (MIC) Assay
(§2) The assays were run as follows.

[9] = test system: Enterococcus faecalis EF159 (tet(M)); experiment: MIC assay, EF159; format: cell-based; conditions: E. faecalis tet(M), Table 4, read-out: MIC EF 159 tetM
[10] = test system: Haemophilus influenzae HI262 (tetracycline-resistant, ampicillin-resistant); experiment: MIC assay, HI262; format: cell-based; conditions: H. influenzae tetracycline-resistant, Table 5, read-out: MIC HI 262 33929
[11] = test system: Enterobacter cloacae EC108 (ATCC 13047); experiment: MIC assay, EC108; format: cell-based; conditions: ATCC13047, E. cloacae ATCC 13047, Table 4, read-out: MIC ECI 108 13047
[12] = test system: Escherichia coli EC107 (ATCC 25922); experiment: MIC assay, EC107; format: cell-based
[13] = test system: Enterococcus faecalis EF103 (ATCC 29212); experiment: MIC assay, EF103; format: cell-based; conditions: ATCC29212, E. faecalis ATCC 29212, Table 4, read-out: MIC EF 103 29212
PA 689 = experiment: MIC assay, PA689; conditions: Pseudomonas aeruginosa, read-out: MIC PA 689
Description: as §3, §4

[14] = test system: Pseudomonas aeruginosa PA111 (ATCC 27853); experiment: MIC assay, PA111; format: cell-based; conditions: ATCC27853, P. aeruginosa ATCC 27853, Table 4, read-out: MIC PA 111 27853
[15] = test system: Pseudomonas aeruginosa PA693 (2009 corneal scraping isolate); experiment: MIC assay, PA693; format: cell-based; conditions: control compounds
[16] = test system: Streptococcus pneumoniae SP106 (ATCC 49619); experiment: MIC assay, SP106; format: cell-based; conditions: ATCC49619, S. pneumoniae ATCC 49619, Table 4, read-out: MIC SP 106 49619
[17] = test system: Pseudomonas aeruginosa PA555 (ATCC BAA-47, PAO1); experiment: MIC assay, PA555; format: cell-based
EC 880 ipxC = experiment: MIC assay, EC880; format: cell-based
Description: as §1, §2

[18] = test system: Moraxella catarrhalis MC205 (ATCC 8176); experiment: MIC assay, MC205; format: cell-based; conditions: ATCC8176, M. catarrhalis ATCC 8176, Table 5, read-out: MIC MC 205 8176
KP 194 7E+05 = experiment: MIC assay, KP194; conditions: Table 5
Description: as §3, §4

[19] = test system: Acinetobacter baumannii AB110 (ATCC 19606); experiment: MIC assay, AB110; format: cell-based; conditions: ATCC19606, A. baumannii ATCC 19606, Table 4, read-out: MIC AB 110 19606
[20] = test system: Staphylococcus aureus SA158 (tetracycline-resistant tet(K)); experiment: MIC assay, SA158; format: cell-based

**Q.** For `CN(C)c1ccc(O)c2c1C[C@H]1C[C@H]3[C@H](N(C)C)C(O)=C(C(N)=O)C(=O)[C@@]3(O)C(O)=C1C2=O` [Minocycline, minocycline], which MIC ([1]; MG1655, read-out: MIC EC 878 toIC, E. coli MG1655 tolC::kan, Table 6) is on record?
**A.** 0.25 µg/mL (≈ 0.546 µM)

**Q.** What about the MIC ([1]; MG1655, read-out: MIC EC 878 toIC, E. coli MG1655 tolC::kan, Table 7) of the same molecule?
**A.** 0.25 µg/mL (≈ 0.546 µM)

**Q.** What about the MIC ([1]; MG1655, read-out: MIC EC 878 toIC, control compounds) of the same molecule?
**A.** 0.25 µg/mL (≈ 0.546 µM)

**Q.** And the MIC ([1]; MG1655, read-out: MIC EC 878 tolC, control compounds, numeric)?
**A.** 0.25 µg/mL (≈ 0.546 µM)

**Q.** What about the MIC ([2]; c6, strain PA1145 inferred, read-out: MIC) of the same molecule?
**A.** 33 µg/mL (≈ 72.1 µM)

**Q.** And the MIC ([2]; numeric, read-out: MIC PA 1145)?
**A.** 32 µg/mL (≈ 69.9 µM)

**Q.** What about the MIC (PA 884 35151) of the same molecule?
**A.** 1 µg/mL (≈ 2.19 µM)

**Q.** And the MIC ([3]; Table 5, read-out: MIC SP 312)?
**A.** 16 µg/mL (≈ 35 µM)

**Q.** And the MIC ([3]; Table 6, read-out: MIC SP 312 tet M)?
**A.** 16 µg/mL (≈ 35 µM)

**Q.** What about the MIC ([4]; c9, strain SM256 inferred, read-out: MIC) of the same molecule?
**A.** 0.5 µg/mL (≈ 1.09 µM)

**Q.** And the MIC ([4]; numeric, read-out: MIC SM 256)?
**A.** 0.5 µg/mL (≈ 1.09 µM)

**Q.** And the MIC ([5]; c4, strain PA669 inferred, read-out: MIC)?
**A.** 33 µg/mL (≈ 72.1 µM)

**Q.** What about the MIC ([5]; numeric, read-out: MIC PA 669) of the same molecule?
**A.** 33 µg/mL (≈ 72.1 µM)

**Q.** And the MIC ([6]; S. pneumoniae tet(M), Table 6, read-out: MIC SP 160 tet M)?
**A.** 2 µg/mL (≈ 4.37 µM)

**Q.** And the MIC ([6]; control compounds, numeric, read-out: MIC SP 160 tetM)?
**A.** 2 µg/mL (≈ 4.37 µM)

**Q.** And the MIC [7]?
**A.** 8 µg/mL (≈ 17.5 µM)

**Q.** And the MIC ([8]; E. faecium tet(M), Table 6, read-out: MIC EF 404 tet M)?
**A.** 8 µg/mL (≈ 17.5 µM)

**Q.** And the MIC ([8]; control compounds, numeric, read-out: MIC EF 404 tetM)?
**A.** 8 µg/mL (≈ 17.5 µM)

**Q.** And the MIC (EC 882 imp; Table 6, read-out: MIC EC 882 imp)?
**A.** 0.015 µg/mL (≈ 0.0328 µM)

**Q.** What about the MIC (EC 882 imp; read-out: MIC EC 882 imp, Table 7) of the same molecule?
**A.** 0.02 µg/mL (≈ 0.0437 µM)

**Q.** And the MIC [9]?
**A.** 16 µg/mL (≈ 35 µM)

**Q.** What about the MIC [10] of the same molecule?
**A.** 1 µg/mL (≈ 2.19 µM)

**Q.** And the MIC [11]?
**A.** 2 µg/mL (≈ 4.37 µM)

**Q.** And the MIC ([12]; ATCC25922, E. coli ATCC 25922, Table 6, read-out: MIC EC 107 259 22)?
**A.** 0.5 µg/mL (≈ 1.09 µM)

**Q.** And the MIC ([12]; ATCC25922, E. coli ATCC 25922, Table 7, read-out: MIC EC 07 25922)?
**A.** 0.5 µg/mL (≈ 1.09 µM)

**Q.** What about the MIC ([12]; ATCC25922, control compounds, numeric, read-out: MIC EC 107 25922) of the same molecule?
**A.** 0.5 µg/mL (≈ 1.09 µM)

**Q.** What about the MIC [13] of the same molecule?
**A.** 1 µg/mL (≈ 2.19 µM)

**Q.** What about the MIC (PA 689) of the same molecule?
**A.** 8 µg/mL (≈ 17.5 µM)

**Q.** And the MIC [14]?
**A.** 16 µg/mL (≈ 35 µM)

**Q.** What about the MIC ([15]; c5, strain PA693 inferred, read-out: MIC) of the same molecule?
**A.** 33 µg/mL (≈ 72.1 µM)

**Q.** And the MIC ([15]; numeric, read-out: MIC PA 693)?
**A.** 33 µg/mL (≈ 72.1 µM)

**Q.** And the MIC [16]?
**A.** 0.015 µg/mL (≈ 0.0328 µM)

**Q.** And the MIC ([17]; P. aeruginosa ATCC BAA-47 PAO1, Table 5, read-out: MIC PA 555)?
**A.** 16 µg/mL (≈ 35 µM)

**Q.** And the MIC ([17]; P. aeruginosa ATCC BAA-47 PAO1, Table 6, read-out: MIC PA5 55 BAA- 47)?
**A.** 16 µg/mL (≈ 35 µM)

**Q.** And the MIC ([17]; P. aeruginosa ATCC BAA-47 PAO1, Table 7, read-out: MIC PA 555 BAA- 47)?
**A.** 16 µg/mL (≈ 35 µM)

**Q.** And the MIC ([17]; control compounds, c1, strain PA555 inferred, read-out: MIC)?
**A.** 16 µg/mL (≈ 35 µM)

**Q.** And the MIC ([17]; control compounds, numeric, read-out: MIC PA 555 BAA-47)?
**A.** 16 µg/mL (≈ 35 µM)

**Q.** What about the MIC (EC 880 ipxC; Table 6, read-out: MIC EC 880 ipx C) of the same molecule?
**A.** 0.015 µg/mL (≈ 0.0328 µM)

**Q.** And the MIC (EC 880 ipxC; Table 7, read-out: MIC EC 880 ipxC)?
**A.** 0.02 µg/mL (≈ 0.0437 µM)

**Q.** What about the MIC [18] of the same molecule?
**A.** 0.02 µg/mL (≈ 0.0437 µM)

**Q.** What about the “MIC KP 194 7E+05” value (KP 194 7E+05) of the same molecule?
**A.** 32 μg/mL

**Q.** And the MIC [19]?
**A.** 0.063 µg/mL (≈ 0.138 µM)

**Q.** And the MIC ([20]; S. aureus tet(K), Table 4, read-out: MIC SA 158 tetK)?
**A.** 0.031 µg/mL (≈ 0.0678 µM)

**Q.** And the MIC ([20]; S. aureus tet(K), Table 5, read-out: MIC SA 158 tetK)?
**A.** 0.03 µg/mL (≈ 0.0656 µM)

**Q.** What about the MIC ([20]; S. aureus tet(K), Table 6, read-out: MIC SA 158 tetK) of the same molecule?
**A.** 0.03 µg/mL (≈ 0.0656 µM)

**Q.** What about the MIC ([20]; S. aureus tet(K), Table 7, read-out: MIC SA 158 tetK) of the same molecule?
**A.** 0.03 µg/mL (≈ 0.0656 µM)

**Q.** And the MIC ([20]; control compounds, numeric, read-out: MIC SA 158 tetK)?
**A.** 0.03 µg/mL (≈ 0.0656 µM)

**Q.** And the MIC ([20]; control compounds, read-out: MIC SA 158 tetK)?
**A.** 0.03 µg/mL (≈ 0.0656 µM)
